Patent publication US11618894B2, “Bacteria engineered to reduce hyperphenylalaninemia” (Synlogic Operating Company, Inc., priority 2015, dated 2023)

Legend:
[1] = Kinetics of phenylalanine in the enterocirculation model; assay type: in vivo, PKU (enu2) mice; conditions: subcutaneous 0.1 mg/g phenylalanine
Description: To characterize the phenylalanine enterocirculation model, first the kinetics of serum levels of phenylalanine post phenylalanine challenger were assessed.
On day −6, PKU (enu2) mice were placed on phenylalanine-free chow and water (+)Phe (0.5 g/L)
On day 1, animals were bled to get T=0 (pre Phe challenge), and animals were randomized into two groups based on phenylalanine levels measured. The first treatment group (n=15) included mice for use for the 2, 6 and 24 hour post phenylalanine challenge time points; Group 2 (n=15) included mice for the 4 and 8 hour post phenylalanine challenge time points.
Mice were pre-weighed to obtain the average weight for each group. Phenylalanine was dosed at a concentration equal to average group weight. Animals were dosed subcutaneously with 0.1 mg/g phenylalanine. In Group 1, animals were bled at 2, 6 and 24 h post Phe challenge. In Group 2, animals were bled at 4 and 8 h post Phe challenge. Whisker plots in FIG. 38A and FIG. 38B show distribution of mouse blood phenylalanine levels (both overall phenylalanine levels (FIG. 38A) and change in phenylalanine levels from T0 (FIG. 38B). Phenylalanine levels were stably elevated over at least a 6 hour period. […]
On day −6, PKU mice were placed on phenylalanine-free chow and water (+)Phe (0.5 g/L). […] Animals were randomized into three treatment groups based on phenylalanine levels measured. […]

[2] = Oral gavage of TCA in PKU mice, recovery of TCA and hippuric acid in urine, feces and blood
Description: Urine, feces, and blood were collected at 4 hours post gavage and analyzed for TCA and its major breakdown product, hippuric acid.
Animals were transferred to metabolic cages (3 mice per cage, 2 cages per group) and urine samples were collected at 1, 2, 3, 4, 5, 6 hours post TCA dose.

[3] = Turnover of orally gavaged TCA into hippuric acid, recovery in urine; assay type: in vivo, Pah ENU2/2 mice
Description: To determine whether hippuric acid detection in the urine is suitable as a measure for in vivo cell activity and a potential biomarker, the extent of turnover of TCA into hippuric acid was assessed by oral gavage of various concentrations of TCA in PKU mice and subsequent measurement of TCA and hippuric acid by LC/MS.
Various TCA concentrations were administered by oral gavage.
Urine and feces were transferred to appropriate tubes and store samples on ice until processed for MS analysis.
Next, the kinetics of conversion of TCA to hippuric acid was assessed in a time course post pure TCA oral gavage. […] TCA concentrations were administered by oral gavage. […] Urine was transferred to appropriate tubes and store samples on ice until processed for MS analysis.

[4] = system: hippurate; experiment: Kinetics of hippurate recovery in urine, gavage of live cells vs pure TCA; assay type: in vivo, mice
Description: FIG. 56 depicts a graph showing hippurate recovery in urine, and comparing kinetics of the generation of hippuric acid from phenylalanine through the gavage of live cells to the generation of hippuric acid derived from pure TCA gavage.

[5] = oral gavage 0.0125, 0.025, 0.05 or 0.1 mg/g TCA, 4 hours after gavage

Structure (SMILES) | period over which blood phenylalanine levels were stably elevated [1] [h] | recovery of TCA in the form of hippurate in urine [2, 5] | TCA and hippurate in blood and feces ([2]; oral gavage 0.0125-0.1 mg/g TCA, 4 hours post gavage) | recovery of TCA in the form of hippurate in the urine [3, 5] | TCA and hippurate detected in blood and feces ([3]; oral gavage of TCA, 4 h, data not shown) | time of rapid decrease in hippurate recovery in urine post collection start [4] [min]
N[C@@H](Cc1ccccc1)C(=O)O [Phenylalanine, phenylalanine] | ≥ 6 |  |  |  |  | 
O=C(O)/C=C/c1ccccc1 [TCA, Trans-cinnamic acid] |  | nearly full recovery | Insignificant amounts | nearly full recovery | Insignificant amounts | ≤ 15
